# In patent US20070077305A1, “Biocompatible polymeric matrix and preparation thereof” (priority 2005, published 2007):
# Assay: In vitro diffusion test of film using Franz apparatus
# Type: in vitro ADME
# Conditions: after 24 h; from chitosan succinic acid film (DS about 60-80%); phosphate buffer pH 7.2, 32° C.
# Description: The functionalized chitosan polymeric matrix was synthesized as previously described with a degree of substitution of about 60-80%. 500 mg of caffeine was added in 100 mL functionalized chitosan polymeric matrix solution (2.5%) and stirred during […]. Films were produce by applying 20 mL of the solution evenly onto Petri dishes and dried at room temperature for 24-48 h.
# The film produced was subjected to an in vitro diffusion test using Franz apparatus, with an exposed surface area of 3.9 cm^2. Polydimethylsiloxan (Silastic®) membranes have been used as barrier and the receptor compartment (dissolution phase) was 1 L of 50 mM phosphate buffer (pH 7.2) at 32° C. At predetermined time intervals, the samples (5 mL aliquots) were analyzed at 272 nm for the determination of caffeine permeation.
smiles,measurement,value
Cn1c(=O)c2c(ncn2C)n(C)c1=O [caffeine],amount of caffeine in the receptor compartment,405 μg/cm^2
